# Data from US11566002B2, “Substituted tetrahydrocyclopenta[C]pyrroles, substituted dihydropyrrolizines, analogues thereof, and methods using same” (priority 2018, dated 2023).
# System: HBV rcDNA
# Test: HepDE19 assay with bDNA quantitation of HBV rcDNA
# Format: cell-based, hepatitis B virus
# Details: HepDE19 cells, Tet-free medium, 7 day-incubation, rcDNA measured by Quantigene 2.0 bDNA assay, top concentration 25 μM; read-out: DE-19 bDNA EC50
# Procedure, shortened: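 Cytotoxicity (CC50) measured by CellTiter-Glo ATP content in parallel plates, 5,000 cells/well, 4 days. Antiviral EC50 and EC90 derived from HBV rcDNA bDNA levels after 7-day compound exposure (top 25 μM, ½-log 8-point, 0.5% DMSO) of Tet-withdrawn HepDE19 cells at 50,000/well, as % inhibition versus untreated.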
row,SMILES,EC50 [nM]
1,"Cn1c(Cl)c2c(c1C(=O)Nc1ccc(F)c(Cl)c1)CCC2NC(=O)OCc1nc[nH]n1 (single isomer, unassigned) [Compound 104, (1H-1,2,4-Triazol-3-yl)methyl (3-chloro-1-((3-chloro-4-fluorophenyl)carbamoyl)-2-methyl-2,4,5,6-tetrahydrocyclopenta[c]pyrrol-4-yl)carbamate]",1900
2,"Cn1cc2c(c1C(=O)Nc1ccc(F)c(Cl)c1)CCC2NC(=O)OCc1ncco1 (single isomer, unassigned) [Compound 35, Oxazol-2-ylmethyl (1-((3-chloro-4-fluorophenyl)carbamoyl)-2-methyl-2,4,5,6-tetrahydrocyclopenta[c]pyrrol-4-yl)carbamate]",1800
3,"Cn1cnc(COC(=O)NC2CCc3c2c(C2CC2)n(C)c3C(=O)Nc2ccc(F)c(Cl)c2)n1 (single isomer, unassigned) [Compound 91, (1-Methyl-1H-1,2,4-triazol-3-yl)methyl (1-((3-chloro-4-fluorophenyl)carbamoyl)-3-cyclopropyl-2-methyl-2,4,5,6-tetrahydrocyclopenta[c]pyrrol-4-yl)carbamate]",22000
4,"Cn1cnc(COC(=O)NC2CCc3c2c(C2CC2)n(C)c3C(=O)Nc2ccc(F)c(Cl)c2)n1 (single isomer, unassigned) [Compound 90, (1-Methyl-1H-1,2,4-triazol-3-yl)methyl (1-((3-chloro-4-fluorophenyl)carbamoyl)-3-cyclopropyl-2-methyl-2,4,5,6-tetrahydrocyclopenta[c]pyrrol-4-yl)carbamate]",420
5,"Cn1cc2c(c1C(=O)Nc1ccc(F)c(Cl)c1)CCC2NC(=O)OCCC#N (single isomer, unassigned) [Compound 49, 2-Cyanoethyl (1-((3-chloro-4-fluorophenyl)carbamoyl)-2-methyl-2,4,5,6-tetrahydrocyclopenta[c]pyrrol-4-yl)carbamate]",60
6,"Cn1cnc(COC(=O)NC2CCc3c2cn(C)c3C(=O)Nc2ccc(F)c(Cl)c2)n1 (single isomer, unassigned) [Compound 25, (1-Methyl-1H-1,2,4-triazol-3-yl)methyl (1-((3-chloro-4-fluorophenyl)carbamoyl)-2-methyl-2,4,5,6-tetrahydrocyclopenta[c]pyrrol-4-yl)carbamate]",3500
7,"Cn1cc2c(c1C(=O)Nc1ccc(F)c(Cl)c1)CCC2NC(=O)OCc1ccccn1 (centres unmarked) [Compound 2, pyridin-2-ylmethyl (1-((3-chloro-4-fluorophenyl)carbamoy1)-2-methyl-2,4,5,6-tetrahydrocyclopenta[c]pyrrol-4-yl)carbamate]",260
8,"Cn1cc2c(c1C(=O)Nc1ccc(F)c(Cl)c1)CCC2NC(=O)OCc1c[nH]nn1 (single isomer, unassigned) [Compound 59, (1H-1,2,3-Triazol-4-yl)methyl (1-((3-chloro-4-fluorophenyl)carbamoyl)-2-methyl-2,4,5,6-tetrahydrocyclopenta[c]pyrrol-4-yl)carbamate]",4200
9,"Cc1n[nH]nc1COC(=O)NC1CCc2c1cn(C)c2C(=O)Nc1ccc(F)c(Cl)c1 (single isomer, unassigned) [Compound 139, (5-Methyl-2H-1,2,3-triazol-4-yl)methyl (1-((3-chloro-4-fluorophenyl)carbamoyl)-2-methyl-2,4,5,6-tetrahydrocyclopenta[c]pyrrol-4-yl)carbamate]",3600
10,"Cn1cc2c(c1C(=O)Nc1ccc(F)c(Cl)c1)CCC2NC(=O)OCc1cnco1 (single isomer, unassigned) [Compound 37, Oxazol-5-ylmethyl (1-((3-chloro-4-fluorophenyl)carbamoyl)-2-methyl-2,4,5,6-tetrahydrocyclopenta[c]pyrrol-4-yl)carbamate]",2600
11,"Cn1cnc(COC(=O)NC2CCn3c(C(=O)Nc4ccc(F)c(Cl)c4)ccc32)n1 (single isomer, unassigned) [Compound 41, (1-Methyl-1H-1,2,4-triazol-3-yl)methyl (5-((3-chloro-4-fluorophenyl)carbamoyl)-2,3-dihydro-1H-pyrrolizin-1-yl)carbamate]",≥ 25000
12,"Cc1c2c(c(C(=O)Nc3ccc(F)c(Cl)c3)n1C)CCC2NC(=O)OCc1ncn(C)n1 (single isomer, unassigned) [Compound 83, (1-Methyl-1H-1,2,4-triazol-3-yl)methyl (1-((3-chloro-4-fluorophenyl)carbamoyl)-2,3-dimethyl-2,4,5,6-tetrahydrocyclopenta[c]pyrrol-4-yl)carbamate]",3300

# Same assay, conditions: Hepatitis B virus, HepDE19, 168 h, HepDE19 cells, Tet-free medium, 7 day-incubation, rcDNA measured by Quantigene 2.0 bDNA assay, top concentration 25 μM; read-out: DE-19 bDNA EC50
row,SMILES,EC50 [nM]
1,"Cn1cnc(COC(=O)NC2CCc3c2cn(C)c3C(=O)Nc2ccc(F)cc2)n1 (single isomer, unassigned) [Compound 65, (1-methyl-1H-1,2,4-triazol-3-yl)methyl (1-((4-fluorophenyl)carbamoyl)-2-methyl-2,4,5,6-tetrahydrocyclopenta[c]pyrrol-4-yl)carbamate]",810
2,"Cn1cnc(COC(=O)NC2CCCc3c2cn(C)c3C(=O)Nc2ccc(F)c(Cl)c2)n1 (single isomer, unassigned) [Compound 33, (1-Methyl-1H-1,2,4-triazol-3-yl)methyl (1-((3-chloro-4-fluorophenyl)carbamoyl)-2-methyl-4,5,6,7-tetrahydro-2H-isoindol-4-yl)carbamate]",30
3,"Cn1cc2c(c1C(=O)Nc1ccc(F)c(Cl)c1)CCCC2NS(=O)(=O)C1CC1 (single isomer, unassigned) [Compound 78, N-(3-Chloro-4-fluorophenyl)-4-(cyclopropanesulfonamido)-2-methyl-4,5,6,7-tetrahydro-2H-isoindole-1-carboxamide]",3960
4,"Cn1cc2c(c1C(=O)Nc1ccc(F)c(Cl)c1)CCC2NC(=O)OCC1(C(=O)O)CC(F)(F)C1 (racemic) [Compound 53, 1-((((1-((3-chloro-4-fluorophenyl)carbamoyl)-2-methyl-2,4,5,6-tetrahydrocyclopenta [c]pyrrol-4-yl)carbamoyl)oxy)methyl)-3,3-difluorocyclobutane-1-carboxylic acid]",2700

# Same assay, conditions: read-out: DE-19 bDNA EC50; HepDE19 cells, Tet-free medium, 7 day-incubation, rcDNA measured by Quantigene 2.0 bDNA assay, top concentration 25 μM
row,SMILES,EC50 [nM]
1,"CC#CCOC(=O)NC1CCc2c1cn(C)c2C(=O)Nc1ccc(F)c(Cl)c1 (single isomer, unassigned) [Compound 111, But-2-yn-1-yl (1-((3-chloro-4-fluorophenyl)carbamoyl)-2-methyl-2,4,5,6-tetrahydrocyclopenta[c]pyrrol-4-yl)carbamate]",60
2,"CCc1n[nH]nc1COC(=O)NC1CCc2c1cn(C)c2C(=O)Nc1ccc(F)c(Cl)c1 (single isomer, unassigned) [Compound 140, (5-Ethyl-2H-1,2,3-triazol-4-yl)methyl(1-((3-chloro-4-fluorophenyl)carbamoyl)-2-methyl-2,4,5,6-tetrahydrocyclopenta[c]pyrrol-4-yl)carbamate]",12000
3,"Cn1cnc(COC(=O)NC2CCc3c2c(-c2ccccc2)n(C)c3C(=O)Nc2ccc(F)c(Cl)c2)n1 (single isomer, unassigned) [Compound 109, (1-Methyl-1H-1,2,4-triazol-3-yl)methyl (1-((3-chloro-4-fluorophenyl)carbamoyl)-2-methyl-3-phenyl-2,4,5,6-tetrahydrocyclopenta[c]pyrrol-4-yl)carbamate]",24000
4,"Cn1ccc(COC(=O)NC2CCCc3c2cn(C)c3C(=O)Nc2ccc(F)c(Cl)c2)n1 (single isomer, unassigned) [Compound 77, (1-Methyl-1H-pyrazol-3-yl)methyl(1-((3-chloro-4-fluorophenyl)carbamoyl)-2-methyl-4,5,6,7-tetrahydro-2H-isoindol-4-yl)carbamate]",70
